Assay results from US12600709B2, “Nonpeptide somatostatin type 5 receptor agonists and uses thereof” (Crinetics Pharmaceuticals, Inc., priority 2019, dated 2026).
Read-outs that look alike come from different tables or passages of the source.

Legend:
[1] = molecular target: T1, human somatostatin receptor subtype 5 (Homo sapiens, UniProt P35346); assay: cAMP assay for SST5R (inhibition of cAMP in CHO-K1 cells); format: cell-based; conditions: for EC50: inhibition of cAMP via human SST5 receptor, read-out: SST5 potency; for Fold selectivity for SST5 vs SST2: class symbols, SST5 receptor over SST2 receptor
T1 construct: expressed in transfected cells
Procedure, shortened: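 CHO-K1 cells stably expressing human SSTR5 were treated 20 min at 37 °C with compounds plus 1.6 μM NKH477 in HBSS, 0.5 mM HEPES pH 7.4, 0.1% BSA, 0.2 mM IBMX. Lysate cAMP measured by HTRF against a standard curve; EC50 from cAMP-versus-concentration plots.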

[2] = molecular target: T2, human somatostatin receptor subtype 2 (Homo sapiens, UniProt P30874); assay: cAMP assay for SST2R (inhibition of cAMP in CHO-K1 cells); format: cell-based; conditions: Table B; inhibition of cAMP via human SST2 receptor; read-out: SST2 potency
T2 construct: expressed in transfected cells
Procedure, shortened: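 Agonism read as decrease in NKH477 (1.6 μM)-stimulated cAMP: compounds applied 20 min, 37° C, with 0.2 mM IBMX, to CHO-K1 stably expressing human SSTR2. cAMP quantified in lysates by time-resolved fluorescence (HTRF kit, 1-24 h RT), standard-curve regression, then EC50.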

T2 sequence (P30874 whole entry): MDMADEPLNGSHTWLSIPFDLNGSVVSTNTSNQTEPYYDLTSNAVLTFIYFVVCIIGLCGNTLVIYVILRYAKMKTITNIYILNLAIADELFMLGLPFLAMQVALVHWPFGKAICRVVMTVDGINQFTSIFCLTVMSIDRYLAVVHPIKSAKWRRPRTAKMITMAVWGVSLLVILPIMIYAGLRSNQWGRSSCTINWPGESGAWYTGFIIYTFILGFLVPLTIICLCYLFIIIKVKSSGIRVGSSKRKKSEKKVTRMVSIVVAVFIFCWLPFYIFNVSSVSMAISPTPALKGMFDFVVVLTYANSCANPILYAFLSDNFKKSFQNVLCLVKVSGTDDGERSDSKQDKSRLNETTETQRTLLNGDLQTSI
T1 sequence (P35346 whole entry): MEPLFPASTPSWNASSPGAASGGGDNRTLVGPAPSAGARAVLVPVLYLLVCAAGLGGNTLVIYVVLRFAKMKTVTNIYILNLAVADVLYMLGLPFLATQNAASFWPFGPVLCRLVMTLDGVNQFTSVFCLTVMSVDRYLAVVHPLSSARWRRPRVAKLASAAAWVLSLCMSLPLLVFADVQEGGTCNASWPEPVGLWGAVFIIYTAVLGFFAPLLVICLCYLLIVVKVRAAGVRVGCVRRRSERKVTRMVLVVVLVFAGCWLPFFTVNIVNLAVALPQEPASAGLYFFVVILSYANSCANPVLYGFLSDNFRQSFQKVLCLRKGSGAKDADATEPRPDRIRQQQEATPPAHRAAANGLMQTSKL

| SMILES | EC50 ([1]; Table A) | Fold selectivity for SST5 vs SST2 ([1]; Table B) | EC50 ([1]; Table B) | EC50 [2] |
| --- | --- | --- | --- | --- |
| COc1ncc(C(=O)N[C@@H](C)C2CC2)c(N2CC[C@](C)(N)C2)c1-c1ccc(Cl)c(F)c1 [1-263, 4-[(3S)-3-amino-3-methylpyrrolidin-1-yl]-5-(4-chloro-3-fluorophenyl)-N-[(1S)-1-cyclopropylethyl]-6-methoxypyridine-3-carboxamide] | < 10 nM | +++ (+++=>500) | < 10 nM | > 1000 nM |
| C[C@H](NC(=O)c1cnc(OCCC(=O)O)c(-c2cc(F)cc(F)c2)c1N1CC[C@](C)(N)C1)C1CC1 [1-264, 3-({4-[(3S)-3-amino-3-methylpyrrolidin-1-yl]-5-{[(1S)-1-cyclopropylethyl]carbamoyl}-3-(3,5-difluorophenyl)pyridin-2-yl}oxy)propanoic acid] | < 10 nM | +++ (+++=>500) | < 10 nM | > 1000 nM |
| C[C@H](NC(=O)c1cnc(OCCCC(=O)O)c(-c2cc(F)cc(F)c2)c1N1CC[C@](C)(N)C1)C1CC1 [1-265, 4-({4-[(3S)-3-amino-3-methylpyrrolidin-1-yl]-5-{[(1S)-1-cyclopropylethyl]carbamoyl}-3-(3,5-difluorophenyl)pyridin-2-yl}oxy)butanoic acid] | < 10 nM | +++ (+++=>500) | < 10 nM | > 1000 nM |
| C[C@H](NC(=O)c1cnc(OCC2COC2)c(-c2cc(F)cc(F)c2)c1N1CC[C@](C)(N)C1)C1CC1 [1-266, 4-[(3S)-3-amino-3-methylpyrrolidin-1-yl]-N-[(1S)-1-cyclopropylethyl]-5-(3,5-difluorophenyl)-6-[(oxetan-3-yl)methoxy]pyridine-3-carboxamide] | < 10 nM | +++ (+++=>500) | < 10 nM | > 1000 nM |
| C[C@H](NC(=O)c1cnc(OCc2ccccc2)c(-c2cc(F)cc(F)c2)c1N1CC[C@](C)(N)C1)C1CC1 [1-267, 4-[(3S)-3-amino-3-methylpyrrolidin-1-yl]-6-(benzyloxy)-N-[(1S)-1-cyclopropylethyl]-5-(3,5-difluorophenyl)pyridine-3-carboxamide] | < 10 nM | +++ (+++=>500) | < 10 nM | 100 to 1000 nM |

More lines, now with the values ahead:

| EC50 ([1]; Table A) | Fold selectivity for SST5 vs SST2 ([1]; Table B) | EC50 ([1]; Table B) | EC50 [2] | SMILES |
| --- | --- | --- | --- | --- |
| < 10 nM | +++ (+++=>500) | < 10 nM | > 1000 nM | COc1cc(C#N)cc(-c2c(C)ncc(C(=O)NC3CCC(F)(F)CC3)c2N2CC[C@](C)(N)C2)c1 [1-268, 4-[(3S)-3-amino-3-methylpyrrolidin-1-yl]-5-(3-cyano-5-methoxyphenyl)-N-(4,4-difluorocyclohexyl)-6-methylpyridine-3-carboxamide] |
| < 10 nM | +++ (+++=>500) | < 10 nM | 100 to 1000 nM | COc1cc(C#N)cc(-c2c(C)ncc(C(=O)NC3CC(F)(F)C3)c2N2CC[C@](C)(N)C2)c1 [1-269, 4-[(3S)-3-amino-3-methylpyrrolidin-1-yl]-5-(3-cyano-5-methoxyphenyl)-N-(3,3-difluorocyclobutyl)-6-methylpyridine-3-carboxamide] |
| < 10 nM | +++ (+++=>500) | < 10 nM | > 1000 nM | COc1cc(-c2c(C#N)ncc(C(=O)NCC(C)C)c2N2CC[C@](C)(N)C2)ccn1 [1-270, 4-[(3S)-3-amino-3-methylpyrrolidin-1-yl]-2-cyano-2′-methoxy-N-(2-methylpropyl)-[3,4′-bipyridine]-5-carboxamide] |
| < 10 nM | +++ (+++=>500) | < 10 nM | > 1000 nM | CCCCNC(=O)c1cnc(C#N)c(-c2ccnc(OC)c2)c1N1CC[C@](C)(N)C1 [1-271] |
| < 10 nM | +++ (+++=>500) | < 10 nM | 100 to 1000 nM | Cc1ncc(C(=O)N[C@@H](C)C2CC2)c(N2CC[C@H](N)C2)c1-c1cc(F)cc(Cl)c1 [1-272, 4-[(3S)-3-aminopyrrolidin-1-yl]-5-(3-chloro-5-fluorophenyl)-N-[(1S)-1-cyclopropylethyl]-6-methylpyridine-3-carboxamide] |
